Source: patent publication US6921770B2 (priority 2000, dated 2005)
Where two headings read alike, the source gives them in different places.

Tested on: rice blast fungi
Type: in vivo, Pyricularia grisea

Compound | Inhibiting Ratio (%) (at 250 ppm) | Inhibiting Ratio (%) (at 250 ppm) (hydrobromide)
Br.Cn1c(CC(=O)Nc2ccc(Cl)cc2)csc1=Nc1ccc(Oc2ccccc2)cc1 [Compound 319, 2-(4-phenoxyphenylimino)-3-methyl-4-[N-(4-chlorophenyl)carbamoylmethyl]-1,3-thiazol-4-ine hydrobromide] | 100 | 
Cc1ccc(NC(=O)Cc2csc(=Nc3cc(OC(C)C)c(Cl)cc3F)n2C)cc1Cl.Cl [Compound 257, 2-(4chloro-2-fluoro-5-isopropoxyphenylimino)-3-methyl-4-[N-(3-chloro-4-methylphenyl)carbamoylmethyl]-1,3-thiazol-4-ine hydrochloride] | 88 | 
COc1ccc(NC(=O)Cc2csc(=Nc3ccc(Cl)cc3F)n2C)cc1.Cl [Compound 207, 2-(4-chloro-2-fluorophenylimino)-3-methyl-4-[N-(4-methoxyphenyl)carbamoylmethyl]-1,3-thiazol-4-ine hydrochloride] | 93 | 
Br.Cc1ccc(NC(=O)Cc2csc(=Nc3ccc(Oc4ccccc4)cc3)n2C)cc1 [Compound 13, 2-(4-phenoxyphenylimino)-3-methyl-4-[N-(4-methylphenyl)carbamoylmethyl]-1,3-thiazol-4-ine hydrobromide] | 99 | 
Br.Cn1c(CC(=O)Nc2ccc(Cl)cc2)csc1=Nc1ccc(F)cc1 [Compound 316, 2-(4-fluorophenylimino)-3-methyl-4-[N-(4-chlorophenyl)carbamoylmethyl]-1,3-thiazol-4-ine hydrobromide] | 100 | 
2-(2-fluorophenylimino)-3-methyl-4-[N-(methoxyphenyl)carbamoylmethyl]-1,3-thiazol-4-ine [Compound 338] | 97 | 
Br.COc1ccc(NC(=O)Cc2csc(=Nc3ccccc3)n2C)cc1 [Compound 306, 2-phenylimino-3-methyl-4-[N-(4-methoxyphenyl)carbamoylmethyl]-1,3-thiazol-4-ine hydrobromide] | 93 | 
Cl.Cn1c(CC(=O)Nc2ccc(Cl)cc2)csc1=Nc1ccccc1-c1ccccc1 [Compound 131, 2-(2-phenylphenylimino)-3-methyl-4-[N-(4-chlorophenyl)carbamoylmethyl]-1,3-thiazol-4-ine hydrochloride] | 96 | 
Br.CC(C)=CCOc1cc(N=c2scc(CC(=O)Nc3ccccc3)n2C)ccc1Cl [Compound 22, 2-(4-chloro-3-(3,3-dimethylallyloxy)phenylimino)-3-methyl-4-(N-phenylcarbamoylmethyl)-1,3-thiazol-4-ine hydrobromide] | 97 | 
Br.Cc1cc(C)c(N=c2scc(CC(=O)Nc3ccccc3)n2C)c(C)c1 [Compound 321, 2-(2,4,6-trimethylphenylimino)-3-methyl-4-N-phenylcarbamoyl methyl-1,3-thiazol-4-ine hydrobromide] | 97 | 
Br.COc1ccccc1N=c1scc(CC(=O)Nc2ccc(C)cc2)n1C [Compound 28, 2-(2-methoxyphenylimino)-3-methyl-4-[N-(4-methylphenyl)carbamoylmethyl]-1,3-thiazol-4-ine hydrobromide] | 100 | 
Cl.Cn1c(CC(=O)Nc2ccc(Br)cc2)csc1=Nc1cccc(Cl)c1F [Compound 134, 2-(3-chloro-2-fluorophenylimino)-3-methyl-4-[N-(4-bromophenyl)carbamoylmethyl]-1,3-thiazol-4-ine hydrochloride] | 98 | 
Cl.Cn1c(CC(=O)Nc2ccc(Br)cc2)csc1=Nc1ccc(Br)cc1 [Compound 143, 2-(4-bromophenylimino)-3-methyl-4-[N-(4-bromophenyl)carbamoylmethyl]-1,3-thiazol-4-ine hydrochloride] | 95 | 
Cl.Cn1c(CC(=O)Nc2ccc(Cl)cc2)csc1=Nc1ccc(C(F)(F)F)cc1 [Compound 98, 2-(4-trifluoromethylphenylimino)-3-methyl-4-[N-(4-chlorophenyl)carbamoylmethyl]-1,3-thiazol-4-ine hydrochloride] | 96 | 
Br.Cc1ccc(NC(=O)Cc2csc(=Nc3ccc(Cl)cc3F)n2C)cc1 [Compound 50, 2-(4-chloro-2-fluorophenylimino)-3-methyl-4-[N-(4-methylphenyl)carbamoylmethyl]-1,3-thiazol-4-ine hydrobromide] | 100 | 
Br.Cc1cc(Cl)ccc1N=c1scc(CC(=O)Nc2ccccc2)n1C [Compound 25, 2-(4-chloro-2-methylphenylimino)-3-methyl-4-(N-phenylcarbamoylmethyl)-1,3-thiazol-4-ine hydrobromide] | 100 | 
2-(3-fluorophenylimino)-3-methyl-4-[N-(methoxyphenyl)carbamoylmethyl]-1,3-thiazol-4-ine [Compound 337] | 95 | 
Br.Cc1ccc(NC(=O)Cc2csc(=Nc3cc(C(F)(F)F)cc(C(F)(F)F)c3)n2C)cc1 [Compound 54, 2-(3,5-ditrifluoromethylphenylimino)-3-methyl-4-[N-(4-methylphenyl)carbamoylmethyl]-1,3-thiazol-4-ine hydrobromide] | 96 | 
Cl.Cn1c(CC(=O)Nc2ccc(Cl)cc2)csc1=Nc1cccc(F)c1 [Compound 129, 2-(3-fluorophenylimino)-3-methyl-4-[N-(4-chlorophenyl)carbamoylmethyl]-1,3-thiazol-4-ine hydrochloride] | 96 | 
Br.Cc1cc(Cl)ccc1N=c1scc(CC(=O)Nc2cccc(Cl)c2)n1C [Compound 61, 2-(4-chloro-2-methylphenylimino)-3-methyl-4-[N-(3-chlorophenyl)carbamoylmethyl]-1,3-thiazol-4-ine hydrobromide] |  | 100
Cc1ccc(NC(=O)Cc2csc(=Nc3cccc(F)c3)n2C)cc1Cl.Cl [Compound 236, 2-(3-fluorophenylimino)-3-methyl-4-[N-(3-chloro-4-methylphenyl)carbamoylmethyl]-1,3-thiazol-4-ine hydrochloride] | 97 | 
COc1ccc(N=c2scc(CC(=O)Nc3ccc(Cl)cc3)n2C)cc1.Cl [Compound 118, 2-(4-methoxyphenylimino)-3-methyl-4-[N-(4-chlorophenyl)carbamoylmethyl]-1,3-thiazol-4-ine hydrochloride] | 99 | 
Cc1ccc(NC(=O)Cc2csc(=Nc3ccc(C#N)cc3)n2C)cc1Cl.Cl [Compound 228, 2-(4-cyanophenylimino)-3-methyl-4-[N-(3-chloro-4-methylphenyl)carbamoylmethyl]-4-thiazoline hydrochloride] | 97 | 
Cc1ccc(NC(=O)Cc2csc(=Nc3ccc(F)cc3F)n2C)cc1Cl.Cl [Compound 232, 2-(2.4-difluorophenylimino)-3-methyl-4-[N-(3-chloro-4-methylphenyl)carbamoylmethyl]-4-thiazoline hydrochloride] | 92 | 
